pIC50: −log10 of the molar value.

These results are taken from patent publication US7329655B2, “Nitrogenous heterocyclic compounds” (Millennium Pharmaceuticals, Inc., priority 2000, dated 2008).

One experiment has as its target T1, human β-PDGFR (Homo sapiens, UniProt P09619).
T1 construct: host or cells: CHO cells (HR5 line)
The experiment in a line: HR5 phosphorylation assay. It is filed as cell-based. The following applies: HR5 cells (CHO overexpressing human β-PDGFR), 8 nM PDGF BB; inhibition of PDGF receptor phosphorylation. As for the experimental part: The HR5 cell line is a cell line of CHO cells engineered to overexpress human β-PDGFR, which cell line is available from the ATCC. The expression level of β-PDGFR in HR5 cells is around 5×10^4 receptor per cell. For the phosphorylation assay according to the invention, HR5 cells were grown to confluency in 96-well microtiter plates under standard tissue culture conditions, followed by serum-starvation for 16 hours. Quiescent cells were incubated at 37° C. without or with increasing concentrations of the test compound (0.01-30 uM) for 30 minutes followed by the addition of 8 nM PDGF BB for 10 minutes. Cells were lysed in 100 mM Tris, pH 7.5, 750 mM NaCl, 0.5% Triton X-100, 10 mM sodium pyrophosphate, 50 mM NaF, 10 ug/ml aprotinin, […] leupeptin, 1 mM phenylmethylsulfonyl fluoride, 1 mM sodium vanadate, and the lysate was cleared by centrifugation at 15,000×g for 5 minutes. Clarified lysates were transferred into a second microtiter plate in which the wells were previously coated with 500 ng/well of 1B5B11 anti-β-PDGFR mAb, and then incubated for two hours at room temperature. […] Wells were washed prior to adding ABTS (Sigma), and the rate of substrate formation was monitored at 650 nm. […]

For the next experiment, the target named is T2, endogenous β-PDGFR (Homo sapiens, UniProt P09619).
T2 construct: This assay is for measuring endogenous β-PDGFR phosphorylation in MG63 cells; host or cells: MG63 human osteosarcoma cells
The experiment in a line: MG63 phosphorylation assay. It is filed as cell-based. The conditions noted are these: MG63 human osteosarcoma cells, PDGF-BB stimulation in the presence of 45% human plasma; inhibition of PDGF receptor phosphorylation; read-out: MG63 w/human plasma IC50.

T2 sequence (P09619 33-1106): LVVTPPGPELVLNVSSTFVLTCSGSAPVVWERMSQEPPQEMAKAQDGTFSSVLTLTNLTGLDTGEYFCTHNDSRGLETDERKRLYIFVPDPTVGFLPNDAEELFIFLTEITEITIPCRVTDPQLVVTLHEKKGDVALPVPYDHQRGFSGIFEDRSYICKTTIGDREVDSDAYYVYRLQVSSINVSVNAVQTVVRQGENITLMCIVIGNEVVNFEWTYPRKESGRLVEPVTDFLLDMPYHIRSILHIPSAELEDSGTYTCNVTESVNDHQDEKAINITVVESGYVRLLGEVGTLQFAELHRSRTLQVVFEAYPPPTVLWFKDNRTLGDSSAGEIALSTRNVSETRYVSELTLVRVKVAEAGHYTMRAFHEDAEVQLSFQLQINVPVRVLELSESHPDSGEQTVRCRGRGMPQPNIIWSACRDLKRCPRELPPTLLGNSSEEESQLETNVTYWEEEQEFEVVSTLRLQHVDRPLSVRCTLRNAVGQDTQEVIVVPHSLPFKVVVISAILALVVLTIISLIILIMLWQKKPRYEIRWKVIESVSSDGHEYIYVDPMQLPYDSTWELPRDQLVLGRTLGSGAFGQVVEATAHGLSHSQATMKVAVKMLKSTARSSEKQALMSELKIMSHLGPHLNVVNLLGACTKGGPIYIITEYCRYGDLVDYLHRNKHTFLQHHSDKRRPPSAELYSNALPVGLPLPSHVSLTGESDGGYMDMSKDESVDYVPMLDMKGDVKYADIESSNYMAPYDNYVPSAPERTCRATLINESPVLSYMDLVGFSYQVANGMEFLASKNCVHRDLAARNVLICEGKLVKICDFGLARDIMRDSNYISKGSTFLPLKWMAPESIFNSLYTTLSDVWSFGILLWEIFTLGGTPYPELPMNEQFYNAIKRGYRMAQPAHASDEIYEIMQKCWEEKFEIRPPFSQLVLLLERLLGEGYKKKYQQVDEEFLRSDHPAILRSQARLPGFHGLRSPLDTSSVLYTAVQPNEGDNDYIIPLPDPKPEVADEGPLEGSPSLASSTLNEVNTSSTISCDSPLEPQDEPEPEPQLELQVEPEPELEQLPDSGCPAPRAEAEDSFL
T1 sequence (P09619 33-1106): as above

Turning to `COc1cc2c(N3CCN(C(=S)NCc4ccc5c(c4)OCO5)CC3)ncnc2cc1OCCN1CCCCC1` [Example 1], the pIC50 is 7.30 on human β-PDGFR and 6.89 at endogenous β-PDGFR.
Turning to `COc1cc2c(N3CCN(C(=S)NCc4cnc(C)cn4)CC3)ncnc2cc1OCCN1CCCCC1` [Example 2, {4-[6-methoxy-7-(2-piperidylethoxy)quinazolin-4-yl]piperazinyl}{[(5-methylpyrazin-2-yl)methyl]amino}methane-1-thione], the values for the pIC50 against human β-PDGFR and on endogenous β-PDGFR were 7.70 and 7.33, respectively.
